From PubChem BioAssay (NCI)
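In this assay, cells in 96-well plates receive the compound at five concentrations for 48 hours. Endpoints are linearly interpolated between the surrounding concentrations. GI50 is the concentration that inhibits growth by half. The concentration for full growth arrest is given as TGI.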

Experiments:
Assay in all cases: inhibition of tumour cell growth, NCI panel, 48 h; in the data active means GI50 below about 0.43 µM; inactive means the rest
M14 melanoma = tested on: M14 melanoma
SN12C renal = tested on: SN12C renal
ACHN renal = tested on: ACHN renal
PC-3 prostate = tested on: PC-3 prostate
SK-MEL-5 melanoma = tested on: SK-MEL-5 melanoma
UO-31 renal = tested on: UO-31 renal
T-47D breast = tested on: T-47D breast
OVCAR-4 ovarian = tested on: OVCAR-4 ovarian
SR leukemia = tested on: SR leukemia
U251 CNS = tested on: U251 CNS
A549 NSCLC = tested on: A549 NSCLC
SNB-19 CNS = tested on: SNB-19 CNS
UACC-257 melanoma = tested on: UACC-257 melanoma
KM12 colon = tested on: KM12 colon
SF-268 CNS = tested on: SF-268 CNS
SF-295 CNS = tested on: SF-295 CNS
MOLT-4 leukemia = tested on: MOLT-4 leukemia
K-562 leukemia = tested on: K-562 leukemia
OVCAR-5 ovarian = tested on: OVCAR-5 ovarian
HOP-92 NSCLC = tested on: HOP-92 NSCLC
CCRF-CEM leukemia = tested on: CCRF-CEM leukemia
HL-60(TB) leukemia = tested on: HL-60(TB) leukemia
OVCAR-8 ovarian = tested on: OVCAR-8 ovarian
HCT-116 colon = tested on: HCT-116 colon
SF-539 CNS = tested on: SF-539 CNS
HOP-62 NSCLC = tested on: HOP-62 NSCLC
BT-549 breast = tested on: BT-549 breast
NCI-H522 lung = tested on: NCI-H522 lung
SNB-75 CNS = tested on: SNB-75 CNS
UACC-62 melanoma = tested on: UACC-62 melanoma
MALME-3M melanoma = tested on: MALME-3M melanoma
NCI-H460 lung = tested on: NCI-H460 lung
SK-MEL-2 melanoma = tested on: SK-MEL-2 melanoma
NCI/ADR-RES ovarian = tested on: NCI/ADR-RES ovarian
HCT-15 colon = tested on: HCT-15 colon
DU-145 prostate = tested on: DU-145 prostate
LOX IMVI melanoma = tested on: LOX IMVI melanoma
COLO 205 colon = tested on: COLO 205 colon
SW-620 colon = tested on: SW-620 colon
RXF 393 renal = tested on: RXF 393 renal
MCF7 breast = tested on: MCF7 breast
MDA-MB-231 breast = tested on: MDA-MB-231 breast
SK-OV-3 ovarian = tested on: SK-OV-3 ovarian
NCI-H23 lung = tested on: NCI-H23 lung
IGROV1 ovarian = tested on: IGROV1 ovarian
HT29 colon = tested on: HT29 colon
HS 578T breast = tested on: HS 578T breast
786-0 renal = tested on: 786-0 renal
SK-MEL-28 melanoma = tested on: SK-MEL-28 melanoma
RPMI-8226 leukemia = tested on: RPMI-8226 leukemia
TK-10 renal = tested on: TK-10 renal
HCC-2998 colon = tested on: HCC-2998 colon
OVCAR-3 ovarian = tested on: OVCAR-3 ovarian
CAKI-1 renal = tested on: CAKI-1 renal
EKVX NSCLC = tested on: EKVX NSCLC
MDA-MB-435 = tested on: MDA-MB-435
NCI-H226 lung = tested on: NCI-H226 lung
A498 renal = tested on: A498 renal

Cc1ccc(S(=O)(=O)NC(=O)NC(Cc2ccccc2)C(=O)O)cc1 (stereo unspecified)
> 100 µM: TGI (M14 melanoma) | TGI (SN12C renal) | TGI (ACHN renal) | TGI (PC-3 prostate) | TGI (SK-MEL-5 melanoma) | TGI (UO-31 renal) | TGI (T-47D breast) | TGI (OVCAR-4 ovarian) | TGI (SR leukemia) | TGI (U251 CNS) | TGI (A549 NSCLC) | TGI (SNB-19 CNS) | TGI (UACC-257 melanoma) | TGI (KM12 colon) | TGI (SF-268 CNS) | TGI (SF-295 CNS) | TGI (MOLT-4 leukemia) | TGI (K-562 leukemia) | TGI (OVCAR-5 ovarian) | TGI (HOP-92 NSCLC) | TGI (CCRF-CEM leukemia) | TGI (HL-60(TB) leukemia) | TGI (OVCAR-8 ovarian) | TGI (HCT-116 colon) | TGI (SF-539 CNS) | TGI (HOP-62 NSCLC) | TGI (BT-549 breast) | TGI (NCI-H522 lung) | TGI (SNB-75 CNS) | TGI (UACC-62 melanoma) | TGI (MALME-3M melanoma) | TGI (NCI-H460 lung) | TGI (SK-MEL-2 melanoma) | TGI (NCI/ADR-RES ovarian) | TGI (HCT-15 colon) | TGI (DU-145 prostate) | TGI (LOX IMVI melanoma) | TGI (COLO 205 colon) | TGI (SW-620 colon) | TGI (RXF 393 renal) | TGI (MCF7 breast) | TGI (MDA-MB-231 breast) | TGI (SK-OV-3 ovarian) | TGI (NCI-H23 lung) | TGI (IGROV1 ovarian) | TGI (HT29 colon) | TGI (HS 578T breast) | TGI (786-0 renal) | TGI (SK-MEL-28 melanoma) | TGI (RPMI-8226 leukemia) | TGI (TK-10 renal)

COc1ccc(CNc2nc3cc(N)cc(N)c3nc2-c2ccccc2)cc1OC
> 93.6 µM: TGI (DU-145 prostate)
33.5 µM: TGI (786-0 renal)
39.8 µM: TGI (HCC-2998 colon)
29.8 µM: TGI (SF-295 CNS) | TGI (HOP-92 NSCLC)
33.8 µM: TGI (SK-MEL-28 melanoma)
29.2 µM: TGI (UACC-257 melanoma)
> 61 µM: TGI (SNB-19 CNS)
65.9 µM: TGI (SF-268 CNS)
38.1 µM: TGI (U251 CNS) | TGI (IGROV1 ovarian)
10.6 µM: TGI (MDA-MB-231 breast)
4.05 µM: TGI (MDA-MB-435)
> 93.5 µM: TGI (RXF 393 renal)
> 37.6 µM: TGI (LOX IMVI melanoma)
34.4 µM: TGI (HOP-62 NSCLC)
> 27.5 µM: TGI (T-47D breast)
inactive: GI50 (M14 melanoma) 8.56 µM | GI50 (SN12C renal) 14 µM | GI50 (ACHN renal) 14.4 µM | GI50 (PC-3 prostate) 10.9 µM | GI50 (SK-MEL-5 melanoma) 9.27 µM | GI50 (UO-31 renal) 15 µM | GI50 (T-47D breast) 4.16 µM | GI50 (OVCAR-4 ovarian) 7.36 µM | GI50 (SR leukemia) 2.94 µM | GI50 (U251 CNS) 17.3 µM | GI50 (A549 NSCLC) 23.6 µM | GI50 (SNB-19 CNS) 20.1 µM | GI50 (UACC-257 melanoma) 14.7 µM | GI50 (KM12 colon) 12.8 µM | GI50 (SF-268 CNS) 16.6 µM | GI50 (SF-295 CNS) 15.3 µM | GI50 (MOLT-4 leukemia) 3.92 µM | GI50 (K-562 leukemia) 10.9 µM | GI50 (HCC-2998 colon) 17 µM | GI50 (OVCAR-5 ovarian) 20.6 µM | GI50 (OVCAR-3 ovarian) 1.31 µM | GI50 (HOP-92 NSCLC) 13.4 µM | GI50 (CCRF-CEM leukemia) 3.48 µM | GI50 (HL-60(TB) leukemia) 3.17 µM | GI50 (OVCAR-8 ovarian) 10.5 µM | GI50 (HCT-116 colon) 15.4 µM | GI50 (SF-539 CNS) 18.9 µM | GI50 (HOP-62 NSCLC) 18.8 µM | GI50 (BT-549 breast) 14.8 µM | GI50 (NCI-H522 lung) 8.16 µM | GI50 (SNB-75 CNS) 14.1 µM | GI50 (UACC-62 melanoma) 11.7 µM | GI50 (CAKI-1 renal) 12.6 µM | GI50 (MALME-3M melanoma) 3.98 µM | GI50 (NCI-H460 lung) 27.1 µM | GI50 (SK-MEL-2 melanoma) 13.9 µM | GI50 (NCI/ADR-RES ovarian) 17.7 µM | GI50 (HCT-15 colon) 28 µM | GI50 (DU-145 prostate) 41 µM | GI50 (LOX IMVI melanoma) 6.53 µM | GI50 (COLO 205 colon) 7.15 µM | GI50 (SW-620 colon) 7.77 µM | GI50 (EKVX NSCLC) 13 µM | GI50 (RXF 393 renal) 12.7 µM | GI50 (MCF7 breast) 20.9 µM | GI50 (MDA-MB-231 breast) 4.27 µM | GI50 (MDA-MB-435) 2.07 µM | GI50 (SK-OV-3 ovarian) 22.8 µM | GI50 (NCI-H23 lung) 16.9 µM | GI50 (IGROV1 ovarian) 13.5 µM | GI50 (HT29 colon) 7.26 µM | GI50 (HS 578T breast) 23.4 µM | GI50 (786-0 renal) 15.7 µM | GI50 (SK-MEL-28 melanoma) 15 µM | GI50 (RPMI-8226 leukemia) 3.14 µM | GI50 (NCI-H226 lung) 15.4 µM | GI50 (TK-10 renal) 16.8 µM
46.2 µM: TGI (HT29 colon)
> 58.9 µM: TGI (SW-620 colon)
30.8 µM: TGI (NCI-H226 lung)
25.9 µM: TGI (SR leukemia)
40.7 µM: TGI (UO-31 renal)
41.1 µM: TGI (SF-539 CNS)
26.5 µM: TGI (OVCAR-4 ovarian)
24.6 µM: TGI (NCI-H522 lung)
49.5 µM: TGI (SK-MEL-2 melanoma)
3.33 µM: TGI (OVCAR-3 ovarian)
32 µM: TGI (ACHN renal)
> 94.1 µM: TGI (HCT-15 colon)
38.9 µM: TGI (OVCAR-5 ovarian)
14.4 µM: TGI (MALME-3M melanoma)
35.7 µM: TGI (NCI-H23 lung)
> 68.6 µM: TGI (HS 578T breast)
> 70.6 µM: TGI (A549 NSCLC)
> 63.2 µM: TGI (MCF7 breast)
32.1 µM: TGI (OVCAR-8 ovarian)
13.5 µM: TGI (RPMI-8226 leukemia)
37.4 µM: TGI (SNB-75 CNS)
> 100 µM: TGI (MOLT-4 leukemia) | TGI (K-562 leukemia)
27.9 µM: TGI (SN12C renal)
26.2 µM: TGI (CAKI-1 renal)
> 89.9 µM: TGI (HL-60(TB) leukemia)
15.6 µM: TGI (M14 melanoma)
28.4 µM: TGI (KM12 colon)
32.8 µM: TGI (TK-10 renal)
58.2 µM: TGI (NCI/ADR-RES ovarian)
44.6 µM: TGI (EKVX NSCLC)
29.1 µM: TGI (PC-3 prostate)
71.5 µM: TGI (CCRF-CEM leukemia)
> 95.3 µM: TGI (NCI-H460 lung)
24.9 µM: TGI (UACC-62 melanoma)
31.5 µM: TGI (HCT-116 colon)
25.3 µM: TGI (SK-MEL-5 melanoma)
45.6 µM: TGI (SK-OV-3 ovarian)
32.5 µM: TGI (BT-549 breast)
> 48.8 µM: TGI (COLO 205 colon)

CN1c2ccccc2C(=O)NC12CCN(Cc1ccccc1)CC2
> 100 µM: TGI (M14 melanoma) | TGI (SN12C renal) | TGI (ACHN renal) | TGI (SK-MEL-5 melanoma) | TGI (UO-31 renal) | TGI (T-47D breast) | TGI (OVCAR-4 ovarian) | TGI (SR leukemia) | TGI (U251 CNS) | TGI (A549 NSCLC) | TGI (SNB-19 CNS) | TGI (UACC-257 melanoma) | TGI (KM12 colon) | TGI (SF-268 CNS) | TGI (SF-295 CNS) | TGI (MOLT-4 leukemia) | TGI (HCC-2998 colon) | TGI (OVCAR-5 ovarian) | TGI (CCRF-CEM leukemia) | TGI (HL-60(TB) leukemia) | TGI (OVCAR-8 ovarian) | TGI (HCT-116 colon) | TGI (SF-539 CNS) | TGI (HOP-62 NSCLC) | TGI (SNB-75 CNS) | TGI (UACC-62 melanoma) | TGI (MALME-3M melanoma) | TGI (NCI-H460 lung) | TGI (NCI/ADR-RES ovarian) | TGI (HCT-15 colon) | TGI (DU-145 prostate) | TGI (LOX IMVI melanoma) | TGI (COLO 205 colon) | TGI (SW-620 colon) | TGI (EKVX NSCLC) | TGI (RXF 393 renal) | TGI (MCF7 breast) | TGI (MDA-MB-231 breast) | TGI (MDA-MB-435) | TGI (SK-OV-3 ovarian) | TGI (A498 renal) | TGI (NCI-H23 lung) | TGI (IGROV1 ovarian) | TGI (HT29 colon) | TGI (HS 578T breast) | TGI (786-0 renal) | TGI (SK-MEL-28 melanoma) | TGI (RPMI-8226 leukemia) | TGI (NCI-H226 lung) | TGI (TK-10 renal)
98.5 µM: TGI (HOP-92 NSCLC)
